Source: US20260137662A1, “CD11B AGONISTS FOR TREATMENT OF AUTOIMMUNE DISEASE” (Rush University Medical Center, priority 2022, published 2026)

Assays:
[1] = tested on: TLR7 mediated pro-inflammatory biomarkers; assay: Secretion of pro-inflammatory biomarkers from myeloid cells stimulated with imiquimod (ELISA); type: cell-based; conditions: IMQ (20 ug/mL) and LA1 (20 uM) co-treatment, 4 hours
Description: FIG. 5A illustrates the levels of biomarker IL-1b secretion in myeloid cells after 4 hours of treatment with vehicle DMSO (UT), LA1 (20 uM), Imiquimod (IMQ) (20 ug/mL), or IMQ and LA1 co-treatment. Bars show mean with SD (N=3) (*P<0.05, **P<0.01, ***P<0.001, ***P<0.0001).
FIG. 5B illustrates the levels of biomarker suPAR secretion in myeloid cells after 4 hours of treatment with vehicle DMSO (UT), LA1 (20 uM), Imiquimod (IMQ) (20 ug/mL), or IMQ and LA1 co-treatment. Bars show mean with SD (N=3) (*P<0.05, **P<0.01, ***P<0.001, ***P<0.0001).
FIG. 5C illustrates the levels of biomarker IL-6 secretion in myeloid cells after 4 hours of treatment with vehicle DMSO (UT), LA1 (20 uM), Imiquimod (IMQ) (20 ug/mL), or IMQ and LA1 co-treatment. Bars show mean with SD (N=3) (*P<0.05, **P<0.01, ***P<0.001, ***P<0.0001).
FIG. 5D illustrates the levels of biomarker TNFalpha secretion in myeloid cells after 4 hours of treatment with vehicle DMSO (UT), LA1 (20 uM), Imiquimod (IMQ) (20 ug/mL), or IMQ and LA1 co-treatment.
FIG. 5E illustrates the levels of biomarker IFN-b secretion in myeloid cells after 4 hours of treatment with vehicle DMSO (UT), LA1 (20 uM), Imiquimod (IMQ) (20 ug/mL), or IMQ and LA1 co-treatment. Bars show mean with SD (N=3) (*P<0.05, **P<0.01, ***P<0.001, ****P<0.0001).
The concentration of TLR7 mediated pro-inflammatory biomarkers in untreated myeloid cells, myeloid cells treated with LA1, myeloid cells treated with IMQ, and myeloid cells co-treated with IMQ and LA1 was assessed by ELISA.

[2] = tested on: IMQ-induced mouse model of lupus; assay: IMQ-induced mouse model of lupus, LA1 co-treatment i.p.; type: in vivo, wild type C57BL/6 mice; conditions: IMQ cream 8 weeks
Description: FIG. 8A illustrates an experimental timeline for the measurement of suPAR levels, albumin creatinine ratios (ACR), anti-dsDNA antibody levels, and spleen size in wild type mouse models treated with IMQ, LA1, or IMO and LA1 co-treatment.
FIG. 8B illustrates levels of biomarker suPAR in the blood and urine of wild type mice (WT), mice treated with IMQ, mice co-treated with IMQ and vehicle DMSO or mice co-treated with IMQ and LA1 (2 mg/kg i.p. daily). Each dot represents a unique sample. Bars show mean +/−SEM (n=5).
FIG. 8C illustrates the albumin creatinine ratios (ACR) in the blood and urine of wild type mice (WT), mice treated with IMQ, mice co-treated with IMQ and vehicle DMSO or mice co-treated with IMQ and LA1 (2 mg/kg i.p. daily). Each dot represents a unique sample. Bars show mean +/−SEM (n=5).
FIG. 8D illustrates levels of anti-dsDNA antibodies in the blood and urine of wild type mice (WT), mice treated with IMQ, mice co-treated with IMQ and vehicle DMSO, or mice co-treated with IMQ and LA1 (2 mg/kg i.p. daily). Each dot represents a unique sample. Bars show mean +/−SEM (n=5).
FIG. 8E illustrates spleen size (mm) and weight (g) of wild type mice (WT), mice treated with IMQ, mice co-treated with IMQ and vehicle DMSO, or mice co-treated with IMQ and LA1. Each dot represents a unique sample. Bars show mean +/−SEM (n=5).
To investigate efficacy of LA1 as a therapeutic for SLE and autoimmune diseases in vivo, an IMQ-induced mouse model of lupus (Yokogawa et al, 2014) was used. Imiquimod (IMQ), a known TLR7 stimulant, was used to induce disease in wild type mice. Briefly, wild type C57BL/6 mice (WT) were treated topically with IMQ cream (Aldara) over the course of 8 weeks, as shown in the timeline of FIG. 8A, a group was also co-treated intraperitoneally with LA1 or vehicle DMSO. Blood and urine were collected for analysis of inflammatory cytokines and proteinuria over the course of treatment. […] Additionally, spleen size and weight were recorded.

[3] = tested on: IMQ-induced mouse model of lupus; assay: IMQ-induced mouse model of lupus, LA1 started 0, 2 or 4 weeks after disease induction; type: in vivo, wild type C57BL/6 mice
Description: FIG. 12A illustrates levels of anti-dsDNA antibodies measured weekly in mice co-treated with IMQ and LA1 (30 mg/kg, BID) for 8 weeks. Each dot represents mean +/−SEM (n=4).
FIG. 12B illustrates levels of anti-dsDNA antibodies measured weekly in mice treated with IMQ for 8 weeks starting at week 0 and additionally treated with LA1 (30 mg/kg, BID) for 6 weeks, starting at week 2. Each dot represents mean +/−SEM (n=4).
FIG. 12C illustrates levels of anti-dsDNA antibodies measured weekly in mice treated with IMQ for 8 weeks starting at week 0 and additionally treated with LA1 (30 mg/kg, BID) for 4 weeks, starting at week 4. Each dot represents mean +/−SEM (n=4).
FIG. 12D illustrates levels of biomarker suPAR measured weekly in mice co-treated with IMQ and LA1 (30 mg/kg, BID) for 8 weeks. Each dot represents mean +/−SEM (n=4).
FIG. 12E illustrates levels of biomarker suPAR measured weekly in mice treated with IMQ for 8 weeks starting at week 0 and additionally treated with LA1 (30 mg/kg, BID) for 6 weeks, starting at week 2. Each dot represents mean +/−SEM (n=4).
FIG. 12F illustrates levels of biomarker suPAR measured weekly in mice treated with IMQ for 8 weeks starting at week 0 and additionally treated with LA1 (30 mg/kg, BID) for 4 weeks, starting at week 4. Each dot represents mean +/−SEM (n=4).
FIG. 12G illustrates an experimental timeline for the measurement of anti-dsDNA antibody and suPAR levels in mice treated with IMQ and LA1 for 8 weeks, the LA1 treatment initiated at various time points.
To assess therapeutic efficacy of LA1 in a TLR7-dependent SLE murine model, an IMQ-induced mouse model of lupus (Yokogawa et al., 2014) was used. To induce disease, wild type C57BL/ 6 mice (WT) were treated with IMQ cream (Aldara) over the course of 8 weeks. IMQ-induced mice were then treated with LA 1, the treatment initiated at 0, 2, and 4 weeks after disease induction, as shown in FIG. 12G. Anti-dsDNA antibody and suPAR levels were measured in the murine serum at various time points during treatment.

[4] = co-treated with LA1 2 mg/kg i.p. daily, vs IMQ
[5] = LA1 30 mg/kg BID co-treated with IMQ for 8 weeks (start week 0)
[6] = LA1 30 mg/kg BID started four weeks after initial IMQ (after disease onset)
[7] = LA1 30 mg/kg BID started two weeks after initial IMQ (after disease onset)

With O=C(O)c1ccc(-c2ccc(/C=C3\SC(=S)N(Cc4ccccc4)C3=O)o2)cc1 [LA1, (Z)-4-(5-((3-benzyl-4-oxo-2-thioxothiazolidin-5-ylidene)methyl)furan-2-yl)benzoic acid] the “TLR7-dependent increase in IL-1b level (ELISA)” value [1] was “significantly reduced”, the “TLR7-dependent increase in IL-6 level (ELISA)” value [1] was “significantly reduced” and the “TLR7-dependent increase in TNF-a level (ELISA)” value [1] was “significantly reduced”. The “TLR7-dependent increase in uPAR level (ELISA)” value [1] was “significantly reduced”, the spleen size ([2]; co-treated with LA1) was “reduced” and the spleen weight ([2]; co-treated with LA1) was “reduced”. For the same molecule, the “albumin creatinine ratios (ACR)” value [2, 4] was “significantly reduced”, the “levels of anti-dsDNA antibodies” value [2, 4] was “significantly reduced” and the “levels of suPAR” value [2, 4] was “significantly reduced”. The “anti-dsDNA antibody levels in serum” value [3, 5] was “significantly reduced”, the “suPAR levels in serum” value [3, 5] was “significantly reduced” and the “anti-dsDNA antibody levels in serum” value [3, 6] was “significantly reduced”. For the same molecule, the “suPAR levels in serum” value [3, 6] was “significantly reduced”, the “anti-dsDNA antibody levels in serum” value [3, 7] was “significantly reduced” and the “suPAR levels in serum” value [3, 7] was “significantly reduced”.
